The values that follow come from BindingDB's records for doi:10.1016/j.bmc.2016.06.011 (Florida A&M University, 2016).

Experiment [1] deals with T1, 5-hydroxytryptamine receptor 2C (Homo sapiens, UniProt P28335).
T1 sequence (P28335 whole entry): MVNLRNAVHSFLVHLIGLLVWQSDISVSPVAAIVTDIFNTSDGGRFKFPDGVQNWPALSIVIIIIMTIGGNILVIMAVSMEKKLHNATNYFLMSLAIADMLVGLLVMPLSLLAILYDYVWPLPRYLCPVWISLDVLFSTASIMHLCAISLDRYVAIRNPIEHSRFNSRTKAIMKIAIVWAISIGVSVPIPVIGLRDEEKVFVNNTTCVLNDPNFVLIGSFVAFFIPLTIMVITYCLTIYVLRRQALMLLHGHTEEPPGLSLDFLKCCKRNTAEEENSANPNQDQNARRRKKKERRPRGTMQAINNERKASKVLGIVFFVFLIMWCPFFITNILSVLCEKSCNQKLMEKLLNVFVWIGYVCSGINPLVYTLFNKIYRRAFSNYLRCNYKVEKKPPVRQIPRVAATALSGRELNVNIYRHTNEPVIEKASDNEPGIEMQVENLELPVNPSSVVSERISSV
Kind of experiment: Displacement of [3H]Mesulergine from human recombinant 5HT2C receptor incubated for […] by microbeta scintillation counting method. For orientation: In a radioligand displacement assay an active substance lowers the binding of a labelled ligand.

The target in experiment [2] is 5-hydroxytryptamine receptor 2A (Homo sapiens, UniProt P28223). Put plainly: Displacement of [3H]Ketanserin from human recombinant 5HT2A receptor incubated for […] by microbeta scintillation counting method.
In experiment [3] the target is T2, D(4) dopamine receptor (Homo sapiens, UniProt P21917).
T2 sequence (P21917 whole entry): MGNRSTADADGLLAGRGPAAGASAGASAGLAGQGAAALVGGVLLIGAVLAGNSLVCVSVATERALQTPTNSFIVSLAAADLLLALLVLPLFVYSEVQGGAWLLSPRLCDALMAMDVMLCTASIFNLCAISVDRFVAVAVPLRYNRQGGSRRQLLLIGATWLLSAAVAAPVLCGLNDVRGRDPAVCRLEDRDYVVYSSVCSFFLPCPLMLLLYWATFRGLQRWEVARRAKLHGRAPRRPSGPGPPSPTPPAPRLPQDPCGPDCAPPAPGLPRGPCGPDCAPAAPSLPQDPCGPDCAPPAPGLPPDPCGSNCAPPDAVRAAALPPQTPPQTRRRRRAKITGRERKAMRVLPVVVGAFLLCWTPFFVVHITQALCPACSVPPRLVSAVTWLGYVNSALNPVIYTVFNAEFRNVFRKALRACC
Kind of experiment: Displacement of [3H]N-methylspiperone from human recombinant dopamine D4 receptor incubated for […] by microbeta scintillation counting method.

Where only a bound is given, the exact number is not on record here.

Sequence of 5-hydroxytryptamine receptor 2A (P28223 whole entry): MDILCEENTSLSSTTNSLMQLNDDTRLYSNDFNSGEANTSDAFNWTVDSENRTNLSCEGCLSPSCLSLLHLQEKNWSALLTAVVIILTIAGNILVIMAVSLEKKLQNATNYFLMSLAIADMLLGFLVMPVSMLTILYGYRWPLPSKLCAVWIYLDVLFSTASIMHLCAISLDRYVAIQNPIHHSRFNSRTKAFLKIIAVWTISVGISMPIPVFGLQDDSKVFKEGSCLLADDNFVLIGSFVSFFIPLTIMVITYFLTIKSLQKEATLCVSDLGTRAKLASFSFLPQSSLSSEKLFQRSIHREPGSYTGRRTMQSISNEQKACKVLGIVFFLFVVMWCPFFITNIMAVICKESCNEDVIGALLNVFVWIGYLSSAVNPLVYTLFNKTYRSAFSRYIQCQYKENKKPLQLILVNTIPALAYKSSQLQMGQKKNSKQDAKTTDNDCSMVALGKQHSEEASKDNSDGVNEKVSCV

What is called Ki is a dissociation constant, usually derived from enzyme kinetics or from competition with a known ligand. Regarding `OC1(c2ccc(Cl)cc2)CC2CCC(C1)N2CCCCc1nc2ccccc2s1` (centres undefined), the Ki in experiment [1] is 4570 nM; in experiment [2] it was above 10000 nM.

As to `OC1(c2ccc(Cl)cc2)CCN(CCCCc2nc3ccccc3s2)CC1`, in experiment [3], the Ki amounted to 141 nM.

Consider `O=C(CCCCN1CCC(n2c(=O)[nH]c3cc(Cl)ccc32)CC1)c1nc2ccccc2s1`, for which the Ki in experiment [3] turned out to be 1700 nM.
